# Patent US9862684B2, “Modulation of K2P channels” (The Regents of the University of California, priority 2013, dated 2018)
# Read-outs that look alike come from different tables or passages of the source.
# Experiments:
# TREK-1 [1] = target: T1, TREK-1 (Mus musculus, UniProt P97438); assay: Antagonist compound examples, modulation of TREK-1 (current inhibition), Table 5; assay type: cell-based, Murine
# T1 construct: expressed in transfected cells
# T1 sequence (P97438 1-411 isoform P97438-2): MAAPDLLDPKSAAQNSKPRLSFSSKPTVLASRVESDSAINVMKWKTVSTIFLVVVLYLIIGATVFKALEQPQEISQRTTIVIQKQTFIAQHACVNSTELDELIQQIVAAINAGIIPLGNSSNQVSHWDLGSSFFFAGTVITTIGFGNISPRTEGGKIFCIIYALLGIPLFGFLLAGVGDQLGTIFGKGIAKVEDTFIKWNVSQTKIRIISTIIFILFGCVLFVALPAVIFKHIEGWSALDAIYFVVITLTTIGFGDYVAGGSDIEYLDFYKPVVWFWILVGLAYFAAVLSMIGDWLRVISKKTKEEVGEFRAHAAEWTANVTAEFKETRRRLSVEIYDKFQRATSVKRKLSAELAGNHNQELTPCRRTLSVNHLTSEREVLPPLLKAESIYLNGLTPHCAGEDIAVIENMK
# Experimental: (§1) Two-electrode voltage clamp recordings were performed from defolliculated stage V-VI Xenopus oocytes 24-48 hours after injection with 0.015-6.0 ng cRNA, using microelectrodes (0.3-3.0 MΩ) filled with 3M KCl. Data was acquired using the GeneClamp 500B (MDS Analytical Technologies) amplifier controlled by the pClamp software (Molecular Devices), and digitized at 1 kHz using Digidata 1332A (MDS Analytical Technologies). Recording solutions (mM): 2K (96 NaCl, 2 KCl, 1.8 CaCl2, 2 MgCl2), 90K (90 KCl, 8 NaCl, 1.8 CaCl2, 2 MgCl2), were buffered 5 mM HEPES pH 7.4. For K2P recordings, currents we elicited by a 1 second long ramp from −150 to +50 mV from a holding potential of −80 mV (2K), or −100 to +50 mV from a holding potential of 0 mV (90K). For KCNQ2 recordings, currents were elicited by a step protocol from −120 to 60 mV, in 20 mV increments, from a holding potential of −80 mV. Patch-clamp recordings from HEK-293T cells were performed using microelectrodes (2-3 MΩ) filled with 1M KCl. Data was acquired using the Axopatch 200B amplifier controlled by pClamp software, and digitized at 1 kHz using Digidata 1332A. Recording solutions (mM): intracellular (145 KCl, 5 EGTA, 3 MgCl2,) extracellular (150 NaCl, 5 KCl, 3 MgCl2, 1 CaCl2) were buffered with 5 mM HEPES pH 7.2 and 7.4, respectively. Currents were elicited by a 1 second long ramp from −150 to +50 mV from a holding potential of −80 mV. Data were fitted with a modified Hill's equation: I=Imin+(Imax−Imin)/(1+10^((Log EC50−Log [C])*H)), where Imax and Imin are maximal and minimal current values, respectively, EC50 is a half-maximal effective concentration of the compound, and H is the Hill coefficient.
# Solubility (remarks) = assay type: physicochemical
# K2P2.1 (TREK-1) [2] = target: T2, K2P2.1 (TREK-1) (Mus musculus, UniProt P97438); assay: Two-electrode voltage clamp of Xenopus oocytes expressing K2P2.1 (TREK-1); assay type: cell-based, Murine; details: two-electrode voltage clamp, Xenopus oocytes
# T2 construct: expressed in transfected cells; host or cells: Xenopus oocytes (cRNA injection, pGEMHE/pMO)
# T2 sequence (P97438 1-411 isoform P97438-2): T1 sequence (P97438 1-411 isoform P97438-2)
# Experimental: (§2) Two-electrode voltage clamp recordings were performed from defolliculated stage V-VI Xenopus oocytes 24-48 hours after injection with 0.015-6.0 ng cRNA, using microelectrodes (0.3-3.0 MΩ) filled with 3M KCl. […] Recording solutions (mM): 2K (96 NaCl, 2 KCl, 1.8 CaCl2, 2 MgCl2), 90K (90 KCl, 8 NaCl, 1.8 CaCl2, 2 MgCl2), were buffered 5 mM HEPES pH 7.4. For K2P recordings, currents we elicited by a 1 second long ramp from −150 to +50 mV from a holding potential of −80 mV (2K), or −100 to +50 mV from a holding potential of 0 mV (90K). For KCNQ2 recordings, currents were elicited by a step protocol from −120 to 60 mV, in 20 mV increments, from a holding potential of −80 mV. […] Currents were elicited by a 1 second long ramp from −150 to +50 mV from a holding potential of −80 mV.
# K2P2.1 (TREK-1) [3] = target: T3, K2P2.1 (TREK-1) (Homo sapiens, UniProt O95069); details: cited from earlier work
# T3 sequence (O95069 1-426): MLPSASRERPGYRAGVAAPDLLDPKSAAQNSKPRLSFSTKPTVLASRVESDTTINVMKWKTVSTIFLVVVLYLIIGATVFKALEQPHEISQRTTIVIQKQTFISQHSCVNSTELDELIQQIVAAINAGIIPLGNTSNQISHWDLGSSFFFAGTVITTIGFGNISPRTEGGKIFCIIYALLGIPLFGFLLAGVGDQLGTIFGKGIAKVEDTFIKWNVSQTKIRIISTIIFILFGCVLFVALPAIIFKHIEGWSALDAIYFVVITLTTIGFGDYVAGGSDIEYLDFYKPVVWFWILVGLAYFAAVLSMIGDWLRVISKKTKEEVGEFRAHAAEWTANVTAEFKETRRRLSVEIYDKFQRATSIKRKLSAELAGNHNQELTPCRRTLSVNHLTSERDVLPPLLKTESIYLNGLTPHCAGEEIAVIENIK
# K2P10.1 (TREK-2) = target: T4, K2P10.1 (TREK-2) (Mus musculus, UniProt Q8BUW1); assay: Two-electrode voltage clamp, Xenopus oocytes expressing K2P10.1 (TREK-2); assay type: cell-based, Murine
# T4 construct: expressed in transfected cells; host or cells: Xenopus oocytes
# T4 sequence (Q8BUW1 1-535): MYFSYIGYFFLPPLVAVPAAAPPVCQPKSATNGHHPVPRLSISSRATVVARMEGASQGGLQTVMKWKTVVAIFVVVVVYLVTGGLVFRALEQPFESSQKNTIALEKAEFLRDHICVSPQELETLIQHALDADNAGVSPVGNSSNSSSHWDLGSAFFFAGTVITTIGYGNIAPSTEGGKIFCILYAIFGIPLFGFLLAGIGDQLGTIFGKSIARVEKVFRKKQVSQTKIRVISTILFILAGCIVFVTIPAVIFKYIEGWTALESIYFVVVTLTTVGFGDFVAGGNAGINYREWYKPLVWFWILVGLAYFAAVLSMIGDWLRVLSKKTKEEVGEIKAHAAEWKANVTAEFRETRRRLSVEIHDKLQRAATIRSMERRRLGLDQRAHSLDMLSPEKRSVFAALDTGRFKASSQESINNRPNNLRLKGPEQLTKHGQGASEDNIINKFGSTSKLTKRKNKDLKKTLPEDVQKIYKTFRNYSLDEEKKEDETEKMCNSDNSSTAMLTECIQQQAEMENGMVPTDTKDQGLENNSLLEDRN
# Experimental: (§3) FIG. 7 ML67-33 is a selective activator of heat- and mechanosensitive K2P channels. a-f, Exemplar I-V curves showing the effect of ML67-33 on a, K2P10.1 (TREK-2), b, K2P4.1 (TRAAK), c, K2P3.1 (TASK-1), d, K2P9.1 (TASK-3), e, K2P5.1 (TASK-2), and f, K2P18.1 (TRESK) measured in Xenopus oocytes in 2 mM [K^+]o pH 7.4. Currents were elicited by a voltage ramp from −150 to 50 mV, from a holding potential of −80 mV. g, Quantification of the effect of ML67-33 on the indicated channels. Data (mean±s.e., n≧6, N≧2) was normalized to basal channel activity and fitted to the Hill equation. […] Error bars indicate s.e., n≧6, N≧2.
# (§4) Murine K2P channels were cloned into pGEMHE/pMO {Bagriantsev, 2011}, IRES-GFP (Invitrogen), or pYES2-MET25 (high copy 2μ, URA3) {Minor, 1999} for expression in oocytes, HEK-293T cells, and yeast, respectively, using standard molecular biology procedures, and verified by DNA sequencing.
# as §1
# (§5) There are six K2P subgroups {Noel, 2011} (FIG. 11). […]
# K2P3.1 (TASK-1) = target: T5, K2P3.1 (TASK-1) (Mus musculus, UniProt O35111); assay: Two-electrode voltage clamp, Xenopus oocytes expressing K2P3.1 (TASK-1); assay type: cell-based, Murine
# T5 construct: expressed in transfected cells; host or cells: Xenopus oocytes
# Experimental: as §3, §4, §1, §5
# Kv7.2 (KCNQ2) = target: T6, Kv7.2 (KCNQ2) (Homo sapiens, UniProt O43526); assay: Two-electrode voltage clamp, Xenopus oocytes expressing Kv7.2 (KCNQ2); assay type: cell-based
# T6 construct: expressed in transfected cells; host or cells: Xenopus oocytes
# Experimental: FIG. 12 Exemplar I-V curves showing the effect of 100 μM ML67-33 Kv7.2 (KCNQ2) measured by two-electrode voltage clamp in Xenopus oocytes in 2 mM [K^+]o pH 7.4. Currents were elicited by a step protocol from −120 to 60 mV, in 20 mV increments, from a holding potential of −80 mV.
# as §1
# TREK-1 [4] = target: T1, TREK-1; assay: Modulation of TREK-1 by select compounds (agonist activity), Table 3; assay type: cell-based, Murine; details: agonist activity on TREK-1
# Experimental: as §2
# [5] = 25 μM, 0 mV, read-out: inhibition at 25 μM at 0 mV
# T5 sequence (O35111 whole entry): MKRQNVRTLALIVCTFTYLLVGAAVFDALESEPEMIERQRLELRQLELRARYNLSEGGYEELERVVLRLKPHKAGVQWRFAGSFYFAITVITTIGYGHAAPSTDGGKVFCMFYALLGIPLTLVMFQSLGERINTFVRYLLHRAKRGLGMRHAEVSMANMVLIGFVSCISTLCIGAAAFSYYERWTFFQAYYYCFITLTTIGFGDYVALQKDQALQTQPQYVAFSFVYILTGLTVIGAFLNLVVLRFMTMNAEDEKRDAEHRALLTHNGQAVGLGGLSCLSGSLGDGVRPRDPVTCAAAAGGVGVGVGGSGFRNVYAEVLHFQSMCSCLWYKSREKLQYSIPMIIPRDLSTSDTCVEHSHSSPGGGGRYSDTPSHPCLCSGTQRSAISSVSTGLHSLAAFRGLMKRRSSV
compound,measurement,setting,value
"c1ccc(CCNc2ncnc3c2cnn3-c2ccccc2)cc1 [ML45-1, 1-phenyl-N-(2-phenylethyl)-1H-pyrazolo[3,4-d]pyrimidin-4-amine]",inhibition at 25 µM,TREK-1 [1]; [5],22.5%
"Cc1cccc(-n2ncc3c(NCCc4ccc(S(N)(=O)=O)cc4)ncnc32)c1 [ML45-5, 4-(2-{[1-(3-methylphenyl)-1H-pyrazolo[3,4-d]pyrimidin-4-yl]amino}ethyl)benzene-1-sulfonamide]",inhibition at 25 µM,TREK-1 [1]; [5],2.7%
"O=C(CCn1c2ccc(Cl)cc2c2cc(Cl)ccc21)NO [ML67-19, 3-(3,6-dichlorocarbazol-9-yl)-N-hydroxy-propanamide]",solubility (in words),Solubility (remarks),insoluble
"Clc1ccc(-n2ncc3c(NCCc4ccccc4)ncnc32)cc1 [ML45-4, 1-(4-chlorophenyl)-N-(2-phenylethyl)-1H-pyrazolo[3,4-d]pyrimidin-4-amine]",inhibition at 25 µM,TREK-1 [1]; [5],20.7%
"Cc1cccc(-n2ncc3c(NCCc4ccccc4)ncnc32)c1 [ML45, 1-(3-methylpyhenyl)-N-(2-phenylethyl)-1H-pyrazolo[3,4-d]pyrimidin-4-amine]",effect on K2P2.1 (TREK-1) function / activity (in words),K2P2.1 (TREK-1) [2],inhibitors
same,inhibition at 25 µM,TREK-1 [1]; read-out: current inhibition at 25 μM,~30%
CCCCC/C=C\C/C=C\C/C=C\C/C=C\CCCC(=O)O [arachidonic acid],activation of K2P2.1 (TREK-1),K2P2.1 (TREK-1) [3]; at 10-20 μM,3-12 fold
"Cc1ccc(-n2ncc3c(NCCc4ccccc4)ncnc32)cc1 [ML45-2, 1-(4-methylphenyl)-N-(2-phenylethyl)-1H-pyrazolo[3,4-d]pyrimidin-4-amine]",inhibition at 25 µM,TREK-1 [1]; [5],25.2%
"Cc1ccc(-n2ncc3c(NCCc4ccccc4)ncnc32)cc1C [ML45-3, 1-(3,4-dimethylphenyl)-N-(2-phenylethyl)-1H-pyrazolo[3,4-d]pyrimidin-4-amine]",inhibition at 25 µM,TREK-1 [1]; [5],31.9%
"O=C(O)/C=C/n1c2ccc(Cl)cc2c2cc(Cl)ccc21 [ML67-16, (E)-3-(3,6-dichlorocarbazol-9-yl)prop-2-enoic acid]",solubility (in words),Solubility (remarks),insoluble
"O=C(O)CCn1c2ccc(Cl)cc2c2cc(Cl)ccc21 [ML67, 3-(3,6-dichlorocarbazol-9-yl)propanoic acid]",EC50,"K2P10.1 (TREK-2); Xenopus oocytes, 2 mM [K+]o pH 7.4",> 250 µM
same,Emax (fold) at 500 μM,K2P10.1 (TREK-2); at 500 μM,10.1 ± 1.1 at 500 μM fold
same,effect on K2P2.1 (TREK-1) function / activity (in words),K2P2.1 (TREK-1) [2],activated the channel
same,functional effect / activation (in words),"K2P3.1 (TASK-1); ML67-33 applied at 100 μM, ML67 concentration not stated",not
same,Emax (fold) at 500 μM,K2P3.1 (TASK-1); at 500 μM,1.2 ± 0.0 at 500 μM fold
same,effect on Kv7.2 (KCNQ2) (in words),"Kv7.2 (KCNQ2); ML67-33 at 100 μM, ML67 concentration not stated",no effect
same,Emax (fold) at 500 μM,Kv7.2 (KCNQ2); at 500 μM,1.8 ± 0.0 at 500 μM fold
same,EC50,TREK-1 [4],213 µM
ClC(Cl)Cl [chloroform],activation of K2P2.1 (TREK-1),K2P2.1 (TREK-1) [3]; at 1.6 mM,5.5 fold
